Measurements: publication PMC4955782 (Archives of biochemistry and biophysics, 2016)
Like-named read-outs stand apart in the source and are kept apart here. Blank lines part the entries; values can stand above or below the compound they belong to.

Tests used:
[1] = test system: tubulin; details: reported by David et al.; cited from earlier work
[2] = test system: tubulin; assay: Polymer formation without GTP at 0 °C; format: biochemical, bovine; details: no GTP; for % tubulin in polymer ± SE: single compound 30 μM, 20 min, 1.0 mg/mL tubulin; for spiral formation (centrifugation study, Fig. 7A): 10 μM tubulin, concentrations up to 30 μM
[3] = test system: tubulin; assay: Inhibition of MAP-dependent microtubule assembly; format: biochemical, bovine
[4] = test system: αβ-tubulin dimer; assay: Binding of radiolabeled compounds to αβ-tubulin dimer; design: species or system bovine; details: radiolabeled compound
[5] = test system: tubulin; format: binding, bovine; details: for maximum stoichiometry of compound incorporation into aberrant polymer: 80 μM compound; for compound incorporated into induced polymers, as little as: substoichiometric reactions (abstract)
[6] = target: tubulin (Bos taurus, UniProt P81947+Q6B856); assay: Aberrant tubulin assembly; details: for extent of aberrant assembly reaction (turbidity), % of its maximum: within 20 min at 0 °C, 10 μM compound, 10 μM tubulin, 0.6 M glutamate, 1.0 mM MgCl2, 50 μM GTP
tubulin (Bos taurus, UniProt P81947+Q6B856), sequence (P81947 whole entry): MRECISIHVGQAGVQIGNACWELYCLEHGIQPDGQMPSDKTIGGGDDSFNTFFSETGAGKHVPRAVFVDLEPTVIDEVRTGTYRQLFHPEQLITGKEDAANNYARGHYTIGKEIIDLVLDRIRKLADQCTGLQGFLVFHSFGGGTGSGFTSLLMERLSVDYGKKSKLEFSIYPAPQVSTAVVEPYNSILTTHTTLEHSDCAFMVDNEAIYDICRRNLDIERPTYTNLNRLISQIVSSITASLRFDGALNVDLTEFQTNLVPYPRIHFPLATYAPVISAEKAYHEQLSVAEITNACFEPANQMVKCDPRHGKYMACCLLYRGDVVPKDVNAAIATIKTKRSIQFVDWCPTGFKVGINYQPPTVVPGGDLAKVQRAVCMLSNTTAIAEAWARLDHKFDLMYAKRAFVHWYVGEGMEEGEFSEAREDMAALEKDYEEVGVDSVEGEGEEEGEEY
tubulin (Bos taurus, UniProt P81947+Q6B856), sequence (Q6B856 whole entry): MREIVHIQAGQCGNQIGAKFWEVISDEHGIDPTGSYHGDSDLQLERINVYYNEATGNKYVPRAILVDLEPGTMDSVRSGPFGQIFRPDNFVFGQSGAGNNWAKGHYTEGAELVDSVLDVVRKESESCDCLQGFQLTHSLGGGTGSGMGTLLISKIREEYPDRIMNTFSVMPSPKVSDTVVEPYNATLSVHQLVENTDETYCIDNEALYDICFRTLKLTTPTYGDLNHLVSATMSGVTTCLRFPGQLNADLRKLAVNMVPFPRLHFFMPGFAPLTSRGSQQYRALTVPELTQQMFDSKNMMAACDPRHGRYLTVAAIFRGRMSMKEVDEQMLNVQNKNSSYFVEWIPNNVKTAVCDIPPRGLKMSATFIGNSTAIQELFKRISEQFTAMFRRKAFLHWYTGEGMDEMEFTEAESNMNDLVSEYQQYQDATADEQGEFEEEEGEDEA

[7] = test system: cultured cells; details: cited from earlier work
[8] = 5 μM compound, 10 μM tubulin, 22 °C, 30 min
[9] = 10 μM radiolabeled ligand alone (Table 3)
[10] = compound and tubulin equimolar (10 μM each)

Compound: COc1cc2cc(c1Cl)N(C)C(=O)C[C@H](OC(=O)[C@H](C)N(C)C(C)=O)[C@]1(C)O[C@H]1[C@H](C)[C@@H]1C[C@@](O)(NC(=O)O1)[C@H](OC)/C=C/C=C(\C)C2 [Maytansine]
- inhibition of (−)-rhazinilam aberrant assembly reaction [1]: inhibited

Compound: N#Cc1c(-c2ccccc2)c(-c2ccccc2)nn(Cc2nn[nH]n2)c1=O [NSC 608593]
- % tubulin in polymer ± SE [2]: 0 ± 1%

Compound: Cc1nn(CC(=O)O)c(=O)c(C#N)c1-c1ccccc1 [NSC 608600]
- effect on microtubule assembly [3]: no significant effect on microtubule assembly

Compound: Cc1c(-c2ccccc2)nn(CC(=O)O)c(=O)c1C#N [NSC 608602]
- effect on microtubule assembly [3]: no significant effect on microtubule assembly

- binding to the αβ-tubulin dimer [4]: unable to demonstrate binding
- delay of aberrant assembly after addition of compound ([6]; 0 °C, 0.6 M monosodium glutamate, 50 μM GTP, 1 mM MgCl2, 2% dimethyl sulfoxide): about 1 min
- extent of aberrant assembly reaction (turbidity), % of its maximum [6]: 30–35%
Compound: N#Cc1c(-c2ccc(F)cc2)c(-c2ccc(F)cc2)nn(Cc2nn[nH]n2)c1=O [NSC 613241]
- % of the tubulin in polymer pellet [5, 8]: 73%
- % tubulin recovered in pellet ([5]; 10 μM [3H](−)-rhazinilam plus 80 μM nonradiolabeled inhibitor): 89 ± 6.4%
- % tubulin recovered in pellet [5, 9]: 72 ± 5.4%
- Ligand bound/tubulin in aberrant polymer ± SD ([5]; 10 μM radiolabeled ligand alone, 22 °C, 30 min (Table 3)): 0.15 ± 0.013
- % of the tubulin in polymer pellet ([5]; 20 μM compound, 10 μM tubulin): about 90%
- % of the tubulin in polymer ([5]; 40 μM compound, 10 μM tubulin): ~100%
- stoichiometry of compound to tubulin in the pellets ([5]; 40 μM compound, 10 μM tubulin): 0.42
- maximum stoichiometry of compound incorporation into aberrant polymer ([5]; 10 μM tubulin): 0.62
- stoichiometry of compound to tubulin in the pellets [5, 10]: 0.11
- compound incorporated into induced polymers, as little as [5]: 0.1–0.2 mol compound/mol of tubulin
- spiral formation (centrifugation study, Fig. 7A) [2]: minimal
- % tubulin in polymer ± SE [2]: 0 ± 2%

Compound: CC[C@]1(O)C[C@@H]2CN(CCc3c([nH]c4ccccc34)[C@@](C(=O)OC)(c3cc4c(cc3OC)N(C)[C@H]3[C@@](O)(C(=O)OC)[C@H](OC(C)=O)[C@]5(CC)C=CCN6CC[C@]43[C@@H]65)C2)C1 [Vinblastine]
- inhibition of (−)-rhazinilam aberrant assembly reaction [1]: inhibited

- binding to the αβ-tubulin dimer [4]: unable to demonstrate binding
- extent of aberrant assembly reaction (turbidity), % of its maximum [6]: little or no change in turbidity
Compound: (−)-Rhazinilam [reference compound]
- % of the tubulin in polymer pellet [5, 8]: 53%
- % tubulin recovered in pellet ([5]; 10 μM [3H]NSC 613241 plus 80 μM nonradiolabeled inhibitor): 95 ± 5.2%
- % tubulin recovered in pellet [5, 9]: 37 ± 5.1%
- % of the tubulin in polymer pellet ([5]; 20 μM compound, 10 μM tubulin): about 90%
- % of the tubulin in polymer ([5]; 40 μM compound, 10 μM tubulin): ~100%
- stoichiometry of compound to tubulin in the pellets ([5]; 40 μM compound, 10 μM tubulin): 0.47
- maximum stoichiometry of compound incorporation into aberrant polymer ([5]; 10 μM tubulin): 0.68
- stoichiometry of compound to tubulin in the pellets [5, 10]: 0.13
- compound incorporated into induced polymers, as little as [5]: 0.1–0.2 mol compound/mol of tubulin
- spiral formation (centrifugation study, Fig. 7A) [2]: minimal
- % tubulin in polymer ± SE [2]: 0 ± 2%
- IC50 values in treated cells [7]: low μM range
